Our source for the melting point values is patent US9303027B2 (dated 2016).

Where a name gives a salt, the structure may show the parent alone.

As usually defined, the melting point is the temperature, or range, at which the solid turns liquid. As for `COc1cccc([C@@H](CN2CCCC2)NC(=O)C2(c3ccc4oc(=O)[nH]c4c3)CC2)c1`, the melting point fell in the range of 92 to 94 °C. With `O=C(N[C@H](CN1CC[C@H](O)C1)c1ccccc1)C1(c2ccc3oc(=O)[nH]c3c2)CC1`, the melting point was in the range of 142 to 144 °C. In the case of `Cl.O=C(O)Cn1c(=O)oc2ccc(C3(C(=O)N[C@H](CN4CCCC4)c4ccccc4)CC3)cc21` it was 166 to 168 °C; in that of `O=C(O)c1ccc(C2(C(=O)N[C@H](CN3CCCC3)c3ccccc3)CC2)cc1`, 134 to 136 °C. In the case of `NC(=O)c1cccc([C@@H](CN2CCCC2)NC(=O)C2(c3ccc4oc(=O)[nH]c4c3)CC2)c1` it was 139 to 141 °C.

In the case of `CS(=O)(=O)Nc1cccc(C2(C(=O)N[C@H](CN3CCCC3)c3cccc(OCC(=O)O)c3)CC2)c1`, the melting point is 160 to 162 °C. The value for `O=C(N[C@H](CN1CCCC1)c1cccc(OCc2ccccc2)c1)C1(c2ccc3oc(=O)[nH]c3c2)CC1` was 94 to 96 °C. The value for `O=C(N[C@H](CN1CCCC1)c1cccc(O)c1)C1(c2ccc3oc(=O)[nH]c3c2)CC1` was 132 to 134 °C. The value for `O=C(N[C@H](CN1CCCC1)c1cccc(-c2nn[nH]n2)c1)C1(c2ccc3oc(=O)[nH]c3c2)CC1` was 107 to 109 °C; that for `COc1cccc([C@@H](CN2CC[C@H](O)C2)NC(=O)C2(c3ccc4oc(=O)[nH]c4c3)CC2)c1` was 125 to 127 °C; that for `COC(=O)c1ccc(Cn2c(=O)oc3ccc(C4(C(=O)N[C@H](CN5CCCC5)c5cccc(O)c5)CC4)cc32)cc1` was 119 to 120 °C.

In turn, `COC(=O)c1cccc(Cn2c(=O)oc3ccc(C4(C(=O)N[C@H](CN5CCCC5)c5cccc(O)c5)CC4)cc32)c1` gave a melting point of 112 to 113 °C. As to `O=C(N[C@H](CN1CC[C@H](O)C1)c1cccc([N+](=O)[O-])c1)C1(c2ccc3oc(=O)[nH]c3c2)CC1`, the melting point was in the range of 224 to 226 °C. For the compound `O=C1Cc2ccc(C3(C(=O)N[C@H](CN4CCCC4)c4ccccc4)CC3)cc2N1`, the melting point fell in the range of 115 to 118 °C. In the case of `CN(C(=O)C1(c2ccccc2)CCC1)[C@H](CN1CCCC1)c1ccccc1.Cl` it was 234 to 235 °C. In the case of `O=C(N[C@H](CN1CCCC1)c1ccccc1)C1(c2nc3ccccc3s2)CC1` it was 97 to 99 °C; in that of `CS(=O)(=O)Nc1ccc(C2(C(=O)N[C@H](CN3CCCC3)c3ccccc3)CC2)cc1`, 165 to 168 °C; in that of `CS(=O)(=O)Nc1cccc(C2(C(=O)N[C@H](CN3CCCC3)c3ccccc3)CC2)c1`, 146 to 148 °C. For `CN(C(=O)C1(c2ccccc2)CCCC1)[C@H](CN1CCCC1)c1ccccc1.Cl`, the melting point was 220 to 221 °C. The value for `Cl.O=C(N[C@H](CN1CCCC1)c1ccccc1)C1(c2cccc(O)c2)CC1` was 80 to 82 °C. Regarding `Cl.O=C(N[C@H](CN1CCCC1)c1ccccc1)C1(c2cccc(OCc3ccccc3)c2)CC1`, the melting point lay within 118 to 120 °C. In the case of `CS(=O)(=O)Oc1ccc(C2(C(=O)N[C@H](CN3CC[C@H](O)C3)c3ccccc3)CC2)cc1.Cl` it was 60 to 62 °C; in that of `CN(C(=O)C1(c2ccccc2)CCCCC1)[C@H](CN1CCCC1)c1ccccc1.Cl`, 232 to 233 °C.

Turning to `CN(C(=O)C1(c2ccccc2)CC1)[C@H](CN1CCCC1)c1ccccc1.Cl`, the melting point lay within 216 to 217 °C. Compound `O=C(N[C@H](CN1CC[C@H](O)C1)c1ccccc1)C1(c2ccncc2)CC1` registered a melting point of 112 to 114 °C. In the case of `CS(=O)(=O)c1ccc(C2(C(=O)N[C@H](CN3CCCC3)c3ccccc3)CC2)cc1` it was 150 to 152 °C; in that of `CN(C(=O)C1(c2cnc3ccccc3c2)CC1)[C@H](CN1CCCC1)c1ccccc1.Cl`, 223 to 225 °C; in that of `CN(C)S(=O)(=O)c1ccccc1C1(C(=O)N[C@H](CN2CCCC2)c2ccccc2)CC1`, 80 to 81 °C.

`CS(=O)(=O)c1cccc(C2(C(=O)N[C@H](CN3CCCC3)c3ccccc3)CC2)c1.Cl` returned a melting point of 68 to 70 °C. `O=C(N[C@H](CN1CCCC1)c1ccccc1)C1(c2ccc3[nH]c(=O)ccc3c2)CC1`: the melting point is 171 to 172 °C. The value for `CS(=O)(=O)Nc1cc(C2(C(=O)N[C@H](CN3CCCC3)c3ccccc3)CC2)ccc1Cl` was 280 to 281 °C; that for `CC(C)(C)OC(=O)N[C@H]1CCN(C[C@@H](NC(=O)C2(c3cccc(NS(C)(=O)=O)c3)CC2)c2ccccc2)C1` was 66.3 to 66.5 °C; that for `CN[C@H]1CCN(C[C@@H](NC(=O)C2(c3cccc(NS(C)(=O)=O)c3)CC2)c2ccccc2)C1` was 80.6 to 80.8 °C. `Cl.O=C(N[C@H](CN1CCCC1)c1ccccc1)C1(c2ccccc2)CCCCC1` had a melting point of 204 to 205 °C. In the case of `O=C(N[C@H](CN1CCCC1)c1ccccc1)C1(c2ccc3c(c2)NS(=O)(=O)O3)CC1` it was 239 to 241 °C; in that of `CS(=O)(=O)Nc1cccc(C2(C(=O)N[C@H](CN3CCCC3)C3CCCCC3)CC2)c1`, 201 to 202 °C; in that of `Cl.O=C(N[C@H](CN1CCCC1)c1ccccc1)C1(c2cccnc2)CC1`, 150 to 152 °C. In the case of `CS(=O)(=O)Nc1cccc(C2(C(=O)N[C@@H](CN3CCCC3)c3cccc(OCc4ccccc4)c3)CC2)c1` it was 70 to 72 °C; in that of `CS(=O)(=O)Nc1cccc(C2(C(=O)N[C@@H](CN3CCCC3)c3cccc(O)c3)CC2)c1`, 103 to 105 °C. The value for `Cl.O=C(N[C@H](CN1CCCC1)c1ccccc1)C1(c2cnc3ccccc3c2)CC1` was 176 to 178 °C; that for `O=C(N[C@H](CN1CCCC1)c1ccccc1)C1(c2ccc3c(c2)NS(=O)(=O)C3)CC1` was 138 to 140 °C.

`Cl.O=C(N[C@H](CN1CCCC1)c1ccccc1)C1(c2ccccn2)CC1`: the melting point was in the range of 107.1 to 107.3 °C.

With `O=C(N[C@H](CN1CCCC1)c1ccccc1)C1(c2ccc3c(c2)NS(=O)(=O)C=C3)CC1`, the melting point lay in the range of 148 to 150 °C.

The compound `CS(=O)(=O)Nc1ccc(C2(C(=O)N[C@H](CN3CCCC3)c3ccccc3)CC2)cn1` registered a melting point of 182.2 to 182.4 °C. The value for `O=C(N[C@H](CN1CCCC1)c1ccccc1)C1(c2ccc3c(c2)C=CS(=O)(=O)N3)CC1` was 163 to 165 °C; that for `O=C(N[C@H](CN1CCCC1)c1ccccc1)C1(c2ccc3oncc3c2)CC1` was 129 to 130 °C. For `CS(=O)(=O)Oc1cccc([C@@H](CN2CCCC2)NC(=O)C2(c3ccc4oc(=O)[nH]c4c3)CC2)c1` (as salt: trifluoroacetate), the melting point fell in the range of 101 to 103 °C. The value for `CS(=O)(=O)Nc1cccc(C2(C(=O)N[C@H](CN3CC[C@H](N)C3)c3ccccc3)CC2)c1` (as salt: trifluoroacetate) was 119.6 to 119.8 °C. The value for `Cn1c(=O)oc2ccc(C3(C(=O)N[C@H](CN4CCCC4)c4ccccc4)CC3)cc21` (stereo in doubt) was 96 to 98 °C; that for `N#Cc1cccc([C@@H](CN2CCCC2)NC(=O)C2(c3ccc4oc(=O)[nH]c4c3)CC2)c1` (stereo in doubt) was 106 to 108 °C; that for `Nc1cccc([C@@H](CN2CCCC2)NC(=O)C2(c3ccc4oc(=O)[nH]c4c3)CC2)c1` (stereo in doubt) was 95 to 97 °C. The value for `N#Cc1cccc(COc2cccc([C@@H](CN3CCCC3)NC(=O)C3(c4ccc5oc(=O)[nH]c5c4)CC3)c2)c1` (stereo in doubt) was 129 to 130 °C.

`N#Cc1ccc(COc2cccc([C@@H](CN3CCCC3)NC(=O)C3(c4ccc5oc(=O)[nH]c5c4)CC3)c2)cc1` (stereo in doubt) had a melting point of 88 to 89 °C. In the case of `CC(=O)c1cc(C2(C(=O)N[C@H](CN3CCCC3)c3ccccc3)CC2)ccc1O` (stereo in doubt) it was 101.8 to 102.2 °C; in that of `O=C(N[C@H](CN1CCCC1)c1ccccc1)C1(c2ccc3oc(=O)[nH]c3c2)CC1` (stereo in doubt), 142 to 144 °C; in that of `COc1ccc(C2(C(=O)N[C@H](CN3CCCC3)c3ccccc3)CC2)cc1NS(C)(=O)=O` (stereo in doubt), 103 to 105 °C. The value for `Cc1noc2ccc(C3(C(=O)N[C@H](CN4CCCC4)c4ccccc4)CC3)cc12` (stereo in doubt) was 158.5 to 158.8 °C. In turn, `Cc1cc(C2(C(=O)N[C@H](CN3CCCC3)c3ccccc3)CC2)ccc1NS(C)(=O)=O` (stereo in doubt) returned a melting point of 92 to 94 °C. The value for `Cc1ccc(C2(C(=O)N[C@H](CN3CCCC3)c3ccccc3)CC2)cc1NS(C)(=O)=O` (stereo in doubt) was 92 to 94 °C; that for `O=CNc1cc(C2(C(=O)N[C@H](CN3CCCC3)c3ccccc3)CC2)ccc1O` (stereo in doubt) was 175 to 177 °C; that for `CS(=O)(=O)Nc1cc(C2(C(=O)N[C@H](CN3CCCC3)c3ccccc3)CC2)ccc1F` (stereo in doubt) was 67 to 69 °C. The value for `NC(=O)c1cccc(C2(C(=O)N[C@H](CN3CCCC3)c3ccccc3)CC2)c1` (stereo in doubt) was 120 to 121 °C; that for `CS(=O)(=O)Nc1cc(C2(C(=O)N[C@H](CN3CCCC3)c3ccccc3)CC2)c(F)cc1F` (stereo in doubt) was 81.2 to 81.4 °C; that for `C/C(=N/O)c1cc(C2(C(=O)N[C@H](CN3CCCC3)c3ccccc3)CC2)ccc1O` (stereo in doubt) was 158.5 to 158.8 °C. The value for `O=C(N[C@H](CN1CCCC1)c1ccccc1)C1(c2ccc3[nH]c(=O)[nH]c3c2)CC1` (stereo in doubt) was 207 to 209 °C; that for `Cn1nnc2cc(C3(C(=O)N[C@H](CN4CCCC4)c4ccccc4)CC3)ccc21` (stereo in doubt) was 78 to 80 °C; that for `CS(=O)(=O)Nc1cc(C2(C(=O)N[C@H](CN3CCCC3)c3ccccc3)CC2)ccc1F.Cl` (stereo in doubt) was 130 °C. Take `O=C(O)COc1ccc(C2(C(=O)N[C@H](CN3CCCC3)c3ccccc3)CC2)cc1` (stereo in doubt): the melting point was 94 to 95 °C.
